The target of experiment [1] is human recombinant AChE (Homo sapiens, UniProt P22303). The experiment in a line: biochemical. The conditions noted are these: for inhibition at 10 µM / IC50: mean of triplicate; for Selectivity index: IC50 (BuChE)/IC50 (AChE). The protocol: To determine the inhibitory activity of the target compounds towards cholinesterases, the AChE and BuChE inhibition assays were performed in 96 well plates by the method of Ellman with slight modifications. […] Then, the mixture was incubated for 20 min at 37 °C. Subsequently, the reaction was initiated by addition of 50 μL (0.120 mM) of the substrate, acetylthiocholine (ATC) iodide or butyrylthiocholine (BTC) iodide (depending on the enzyme). […] Each assay was performed in triplicate. The percentage of inhibition was calculated using the following expression: (E–S)/E ×100 where E is the activity of the enzyme without test compound and S is the activity of the enzyme with the test compound. IC50 values were obtained from concentration-inhibition experiments by nonlinear regression analysis using PRISM® v5.0 (GraphPad Inc., San Diego, CA).
Sequence of human recombinant AChE (P22303 32-614): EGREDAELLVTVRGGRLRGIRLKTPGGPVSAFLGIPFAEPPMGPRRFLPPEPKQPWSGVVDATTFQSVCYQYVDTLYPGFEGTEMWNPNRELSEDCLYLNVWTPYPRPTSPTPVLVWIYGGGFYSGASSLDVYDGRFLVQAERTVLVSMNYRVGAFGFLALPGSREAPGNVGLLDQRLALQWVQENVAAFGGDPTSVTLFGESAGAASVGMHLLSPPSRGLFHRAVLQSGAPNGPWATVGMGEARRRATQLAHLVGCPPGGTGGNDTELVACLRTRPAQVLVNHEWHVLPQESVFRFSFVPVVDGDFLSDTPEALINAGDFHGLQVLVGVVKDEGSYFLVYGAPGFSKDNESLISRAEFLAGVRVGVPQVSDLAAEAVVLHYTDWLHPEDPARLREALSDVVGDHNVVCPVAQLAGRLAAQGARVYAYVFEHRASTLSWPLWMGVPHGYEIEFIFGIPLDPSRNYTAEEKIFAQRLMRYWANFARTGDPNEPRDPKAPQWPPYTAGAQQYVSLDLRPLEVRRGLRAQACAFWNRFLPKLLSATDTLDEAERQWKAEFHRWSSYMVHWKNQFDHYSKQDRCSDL
The designed 2′-hydroxychalcone derivatives were evaluated for their in vitro inhibitory activities against human recombinant AChE according to Ellman’s colorimetric assay method.

Experiment [2] has as its target equine BuChE (Equus caballus, UniProt P81908). The experiment in a line: biochemical. The class given is biochemical. Particulars: mean of triplicate.

Each structure is given as a SMILES string.

Sequence of equine BuChE (P81908 whole entry): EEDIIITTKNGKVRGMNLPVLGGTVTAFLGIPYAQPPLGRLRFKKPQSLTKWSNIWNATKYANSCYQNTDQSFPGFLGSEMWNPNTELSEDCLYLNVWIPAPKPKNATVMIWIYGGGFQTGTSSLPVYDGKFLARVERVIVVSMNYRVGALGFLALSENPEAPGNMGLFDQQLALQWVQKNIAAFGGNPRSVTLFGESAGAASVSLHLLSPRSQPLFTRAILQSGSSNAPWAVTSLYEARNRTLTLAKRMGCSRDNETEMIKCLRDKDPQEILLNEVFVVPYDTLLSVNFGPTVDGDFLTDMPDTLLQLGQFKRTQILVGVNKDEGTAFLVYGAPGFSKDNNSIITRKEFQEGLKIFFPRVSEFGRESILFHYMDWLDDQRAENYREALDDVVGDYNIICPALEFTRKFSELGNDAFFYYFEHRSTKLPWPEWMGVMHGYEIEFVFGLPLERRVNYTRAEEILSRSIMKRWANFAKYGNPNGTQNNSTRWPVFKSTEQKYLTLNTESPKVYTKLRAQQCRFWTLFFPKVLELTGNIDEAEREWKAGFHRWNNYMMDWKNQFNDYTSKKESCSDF

`COc1cc(O)c(C(=O)/C=C/c2ccc(CC(=O)N3CCCC3)cc2)cc1OC` [Compound 4e, (E)-1-(2-hydroxy-4,5-dimethoxyphenyl)-3-(4-(2-oxo-2-(pyrrolidin-1-yl)ethyl)phenyl)prop-2-en-1-one]: the inhibition (in general, the change of the read-out against control, counted positive when it falls) at 10 µM in experiment [1] came out at 58.9%.
On to `COc1cc(O)c(C(=O)/C=C/c2ccc(OCCN3CCCCC3)cc2)c(OC)c1` [Compound 8e, (E)-1-(2-hydroxy-4,6-dimethoxyphenyl)-3-(4-(2-(piperidin-1-yl)ethoxy)phenyl)prop-2-en-1-one], for which, in experiment [2], the IC50 (commonly the concentration at which inhibition is half-maximal) was 18.3 ± 8 µM. Moreover, in experiment [1], the inhibition at 10 µM was 83.6%, the Selectivity index was found to be 4.0 and the IC50 worked out at 4.6 ± 0.9 µM.
`CCN(CC)C(=O)Cc1ccc(/C=C/C(=O)c2c(O)cc(OC)cc2OC)cc1` [Compound 4c, (E)-N,N-diethyl-2-(4-(3-(2-hydroxy-4,6-dimethoxyphenyl)-3-oxoprop-1-en-1-yl)phenyl)acetamide] returned an IC50 in experiment [2] greater than 100 µM. Further, in experiment [1], the inhibition at 10 µM turned out to be 87.5%, the Selectivity index is greater than 30 and the IC50 turned out to be 3.3 ± 1.3 µM.
`COc1cc(O)c(C(=O)/C=C/c2ccc(OCCN3CCCC3)cc2)cc1OC` [Compound 8d, (E)-1-(2-hydroxy-4,5-dimethoxyphenyl)-3-(4-(2-(pyrrolidin-1-yl)ethoxy)phenyl)prop-2-en-1-one] registered an IC50 in experiment [2] of 89.9 ± 12 µM. In addition, in experiment [1], the inhibition at 10 µM stood at 80.6%, the Selectivity index is recorded as 5.7 and the IC50 turned out to be 15.9 ± 1.8 µM.
As to `COc1cc(O)c(C(=O)/C=C/c2ccc(OCCN3CCCCC3)cc2)cc1OC` [Compound 8c, (E)-1-(2-hydroxy-4,5-dimethoxyphenyl)-3-(4-(2-(piperidin-1-yl)ethoxy)phenyl)prop-2-en-1-one], in experiment [1], the inhibition at 10 µM amounted to 52.5%.
Still for that read-out and setting: in the case of `COc1ccc(O)c(C(=O)/C=C/c2ccc(CC(=O)O)cc2)c1` [Compound 4g, (E)-2-(4-(3-(2-hydroxy-5-methoxyphenyl)-3-oxoprop-1-en-1-yl)phenyl)acetic acid] it was 27%.
On to `COc1ccc(C(=O)/C=C/c2ccc(CC(=O)N3CCCC3)cc2)c(O)c1` [Compound 4d, (E)-1-(2-hydroxy-4-methoxyphenyl)-3-(4-(2-oxo-2-(pyrrolidin-1-yl)ethyl)phenyl)prop-2-en-1-one], for which, in experiment [1], the inhibition at 10 µM was found to be 30.8%.
As to `COc1cc(O)c(C(=O)/C=C/c2ccc(CC(=O)O)cc2)c(OC)c1` [Compound 4h, (E)-2-(4-(3-(2-hydroxy-4,6-dimethoxyphenyl)-3-oxoprop-1-en-1-yl)phenyl)acetic acid], in experiment [1], the inhibition at 10 µM amounted to 15.6%.
Same read-out and setting: in the case of `O=C(O)Cc1ccc(/C=C/C(=O)c2ccccc2O)cc1` [Compound 4f, (E)-2-(4-(3-(2-hydroxyphenyl)-3-oxoprop-1-en-1-yl)phenyl)acetic acid] it was 10.7%.
The same measure, in the same setting: to `CCN(CC)C(=O)Cc1ccc(/C=C/C(=O)c2cc(OC)c(OC)cc2O)cc1` [Compound 4b, (E)-N,N-diethyl-2-(4-(3-(2-hydroxy-4,5-dimethoxyphenyl)-3-oxoprop-1-en-1-yl)phenyl)acetamide] belongs 58.5%.
As for `COc1ccc(C(=O)/C=C/c2ccc(OCCN3CCCCC3)cc2)c(O)c1` [Compound 8a, (E)-1-(2-hydroxy-4-methoxyphenyl)-3-(4-(2-(piperidin-1-yl)ethoxy)phenyl)prop-2-en-1-one], in experiment [2], the “Equine BuChE IC50” value is “inactive” and the IC50 was greater than 100 µM. In addition, in experiment [1], the inhibition at 10 µM was 79.9%, the Selectivity index is greater than 24 and the half-maximal inhibitory concentration (IC50) stood at 4.2 ± 1.3 µM.
With `COc1ccc(C(=O)/C=C/c2ccc(OCCN3CCCC3)cc2)c(O)c1` [Compound 8b, (E)-1-(2-hydroxy-4-methoxyphenyl)-3-(4-(2-(pyrrolidin-1-yl)ethoxy)phenyl)prop-2-en-1-one], in experiment [2], the midpoint of inhibition, the IC50, lay at 65.6 ± 14.8 µM. Besides, in experiment [1], the inhibition at 10 µM stood at 83%, the Selectivity index came out at 5.1 and the IC50 was determined as 12.8 ± 4.8 µM.
With `COc1cc(O)c(C(=O)/C=C/c2ccc(OCCN3CCCC3)cc2)c(OC)c1` [Compound 8f, (E)-1-(2-hydroxy-4,6-dimethoxyphenyl)-3-(4-(2-(pyrrolidin-1-yl)ethoxy)phenyl)prop-2-en-1-one], half-maximal inhibition in experiment [2] (IC50) was put at 31.3 ± 8.2 µM. In experiment [1], the inhibition at 10 µM is 81.4%, the Selectivity index was found to be 1.7 and the 50% inhibitory concentration (IC50) came to 18.5 ± 3.8 µM.
Consider `CCN(CC)C(=O)Cc1ccc(/C=C/C(=O)c2ccc(OC)cc2O)cc1` [Compound 4a, (E)-N,N-diethyl-2-(4-(3-(2-hydroxy-4-methoxyphenyl)-3-oxoprop-1-en-1yl)phenyl)acetamide], for which the inhibition at 10 µM in experiment [1] came to 67.2%.

These data come from PMC7822063, “Analogues of 2′-hydroxychalcone with modified C4-substituents as the inhibitors against human acetylcholinesterase” (Journal of Enzyme Inhibition and Medicinal Chemistry, 2020).
